The results in this text go back to patent US4028402A, “Biguanide salts” (Hoffmann-La Roche Inc., priority 1974, dated 1977).

One data set deals with blood glucose. Particulars: single oral dose, 4 h after administration. On the procedure:
(§1) Four hours after administration of the test substances, the animals were decapitated. After deproteinization of the mixed blood with perchloric acid, glucose concentration was determined photometrically by the hexokinase method. Lactate concentration was determined photometrically with lactate dehydrogenase.

The subject of another data set is blood lactate. As to conditions: single oral dose, 4 h after administration. The protocol:
as §1

The nature of data set [1]: in vivo. Particulars: mouse, po, single daily oral administration for 10 days, 24 hours after the last administration.
A short description of data set [2]: in vivo. As to conditions: rat, po, single daily oral administration for 10 days, 24 hours after the last administration.
The next data set has as its system Mouse. Particulars: single daily oral administration for 10 days, 24 hours after the last administration.
The next data set deals with Rat. Particulars: single daily oral administration for 10 days, 24 hours after the last administration.
[3] abbreviates: 100 μmol/kg, listed as Bis-dichloroacetate of n-butylbiguanide.
Where [4] appears, read: 300 μmol/kg, listed as Bis-dichloroacetate of n-butylbiguanide.
Where [5] appears, read: 1000 μmol/kg, listed as Bis-dichloroacetate of n-butylbiguanide.
Where [6] appears, read: 100 μmol/kg, listed as Hydrochloride of n-butylbiguanide.
Setting [7] is: 300 μmol/kg, listed as Hydrochloride of n-butylbiguanide.
The mark [8] stands for this setting: 1000 μmol/kg, listed as Hydrochloride of n-butylbiguanide.

Structures can show the parent of a compound that is named as a salt. Where two headings read alike, the source gives them in different places.

Consider `CCCCNC(=N)NC(=N)N` [n-butylbiguanide bis-dichloroacetate, 1-butylbiguanide bis-(dichloroacetate)], for which the “Blood glucose, % in controls” value in the data set with blood glucose (setting [3]) is 69 % in controls; with blood glucose (setting [4]) it was 62 % in controls; in the data set on blood glucose (setting [5]) it was 37 % in controls. Moreover, the “Blood lactate, % in controls” value in the data set on blood lactate (setting [3]) amounted to 91 % in controls; with blood lactate (setting [4]), 100 % in controls; in the data set with blood lactate (setting [5]), 106 % in controls. In addition, the LD50 – broadly, the dose at which mortality reaches 50% – in “in vivo [1]” is 1130 ± 180 µmol/kg; in “in vivo [2]”, 1200 ± 200 µmol/kg.

For `CCCCNC(=N)NC(=N)N` [n-butylbiguanide hydrochloride, 1-butylbiguanide.HCl], the “Blood glucose, % in controls” value in the data set with blood glucose (setting [6]) is reported as 76 % in controls; with blood glucose (setting [7]) it was 68 % in controls; in the data set on blood glucose (setting [8]), 35 % in controls. The results for the “Blood lactate, % in controls” value with blood lactate (setting [6]), in the data set on blood lactate (setting [7]) and in the data set on blood lactate (setting [8]) were 123 % in controls, 114 % in controls and 254 % in controls, respectively. Further, the LD50 in the data set on Mouse was determined as 1.37 ± 0.22 mmol/kg; in the data set with Rat, 0.66 ± 0.10 mmol/kg.
